Assay results taken from ChEMBL document CHEMBL1201862, “PubChem BioAssay data set” (2004).
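Results reflect a 48-hour exposure of cells in 96-well plates to compound at five concentrations. Here, GI50 denotes the concentration required for 50% inhibition of growth.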 Calls of active or inactive are those of the source. Cut-off read from the data, not from the text of the source: active = GI50 up to about 1.1 µM and inactive = higher.

Columns and labels:
Experiment in all cases: DTP human tumour cell line panel, 48 h
DU-145 = tested on: DU-145
SW-620 = tested on: SW-620
SK-OV-3 = tested on: SK-OV-3
SF-539 = tested on: SF-539
NCI-H23 = tested on: NCI-H23
CCRF-CEM = tested on: CCRF-CEM
IGROV-1 = tested on: IGROV-1
ACHN = tested on: ACHN
EKVX = tested on: EKVX
UACC-62 = tested on: UACC-62
NCI-H522 = tested on: NCI-H522
HCC 2998 = tested on: HCC 2998
SN12C = tested on: SN12C
NCI-H460 = tested on: NCI-H460
MCF7 = tested on: MCF7
MDA-MB-435 = tested on: MDA-MB-435
COLO 205 = tested on: COLO 205
PC-3 = tested on: PC-3
MDA-N = tested on: MDA-N

Measured: GI50

CCSc1nc(=S)n(-c2ccccc2)c(C)c1C(C)=O
inactive: DU-145 > 100 µM | SW-620 > 100 µM | SK-OV-3 > 100 µM | SF-539 > 100 µM | NCI-H23 > 100 µM | CCRF-CEM > 100 µM | IGROV-1 > 100 µM | ACHN > 100 µM | EKVX > 100 µM | UACC-62 > 100 µM | NCI-H522 > 100 µM | HCC 2998 > 100 µM | SN12C > 100 µM | NCI-H460 > 100 µM | MCF7 > 100 µM | MDA-MB-435 > 100 µM | COLO 205 > 100 µM | PC-3 > 100 µM

Cc1ccc(CCCC(=O)O)cc1C
inactive: DU-145 > 100 µM | SW-620 > 100 µM | NCI-H23 > 100 µM | CCRF-CEM > 100 µM | IGROV-1 > 100 µM | MDA-N > 100 µM | ACHN > 100 µM | EKVX > 100 µM | UACC-62 > 100 µM | NCI-H522 > 100 µM | SN12C > 100 µM | NCI-H460 > 100 µM | MDA-MB-435 > 100 µM | PC-3 > 100 µM

O=C(O)CN1CCN2CCOCCN(CC1)CCN(CC(=O)O)CC2
inactive: DU-145 > 100 µM | SW-620 > 100 µM | SK-OV-3 > 100 µM | SF-539 > 100 µM | NCI-H23 > 100 µM | CCRF-CEM > 100 µM | IGROV-1 > 100 µM | ACHN > 100 µM | EKVX > 100 µM | UACC-62 > 100 µM | NCI-H522 > 100 µM | HCC 2998 > 100 µM | SN12C > 100 µM | NCI-H460 > 100 µM | MCF7 > 100 µM | MDA-MB-435 > 100 µM | COLO 205 > 100 µM | PC-3 > 100 µM

CCOC(=O)C1=C(C)OC2(O)C=CC(O)=C3C(=O)N(c4ccccc4)C(=O)C312 (centres undefined)
inactive: DU-145 36.7 µM | SK-OV-3 90.8 µM | SF-539 29.1 µM | NCI-H23 40.8 µM | IGROV-1 29 µM | ACHN 31.8 µM | EKVX 54 µM | UACC-62 29.9 µM | NCI-H522 18.5 µM | HCC 2998 37.3 µM | SN12C 40.7 µM | NCI-H460 > 100 µM | MCF7 29.6 µM | MDA-MB-435 37.8 µM | COLO 205 43.1 µM | PC-3 35.3 µM

S=C(NN=C1NCCCN1)Nc1ccccc1
inactive: SW-620 > 100 µM | SK-OV-3 > 100 µM | SF-539 > 100 µM | NCI-H23 > 100 µM | CCRF-CEM 43.3 µM | IGROV-1 > 100 µM | ACHN > 100 µM | EKVX > 100 µM | UACC-62 > 100 µM | NCI-H522 60.4 µM | HCC 2998 > 100 µM | NCI-H460 > 100 µM | MCF7 > 100 µM | MDA-MB-435 > 100 µM | COLO 205 > 100 µM | PC-3 > 100 µM

COc1ccc2c(c1)CC[C@@H]1[C@@H]2CC[C@]2(C)C(=O)/C(=C/c3ccc(OC)c(OC)c3)C[C@@H]12
inactive: DU-145 > 100 µM | SW-620 > 100 µM | SK-OV-3 > 100 µM | SF-539 > 100 µM | NCI-H23 97.9 µM | ACHN > 100 µM | EKVX > 100 µM | UACC-62 > 100 µM | HCC 2998 > 100 µM | NCI-H460 > 100 µM | MCF7 > 100 µM | MDA-MB-435 > 100 µM | PC-3 > 100 µM

COc1cc(Nc2nc3ccccc3nc2C(=O)O)cc(OC)c1OC
inactive: DU-145 > 100 µM | SW-620 > 100 µM | SK-OV-3 59.2 µM | SF-539 > 100 µM | NCI-H23 75.7 µM | CCRF-CEM 83.2 µM | IGROV-1 78.3 µM | MDA-N > 100 µM | ACHN > 100 µM | EKVX 30.1 µM | NCI-H522 46 µM | HCC 2998 69.3 µM | SN12C 74.1 µM | NCI-H460 65.3 µM | MDA-MB-435 > 100 µM | COLO 205 > 100 µM | PC-3 > 100 µM

Cn1/c(=N\c2ccc(Cl)cc2)sc2ccccc21
inactive: DU-145 26.6 µM | SW-620 39.8 µM | SK-OV-3 > 100 µM | SF-539 85.1 µM | NCI-H23 38.9 µM | CCRF-CEM > 100 µM | IGROV-1 55.3 µM | ACHN 49.8 µM | EKVX 21.1 µM | UACC-62 40.6 µM | NCI-H522 4.98 µM | HCC 2998 23.7 µM | SN12C 75.3 µM | NCI-H460 40.7 µM | MDA-MB-435 42.1 µM | COLO 205 22.3 µM | PC-3 37 µM

COC(=O)C1=C(O)CCCC(CCC(C)=O)=C1
inactive: DU-145 41.2 µM | SW-620 31.6 µM | SK-OV-3 > 100 µM | SF-539 22.2 µM | NCI-H23 94.4 µM | CCRF-CEM 9.71 µM | IGROV-1 41.2 µM | MDA-N 31.9 µM | ACHN 32.4 µM | EKVX 83.2 µM | UACC-62 46 µM | NCI-H522 12.5 µM | HCC 2998 > 100 µM | SN12C 41 µM | NCI-H460 30.7 µM | MDA-MB-435 69.5 µM | COLO 205 20.5 µM | PC-3 > 100 µM

CC(C)(Oc1ccc(Cl)cc1)C(=O)N(C(=O)N1CCC(c2ccccc2)CC1)c1ccccc1
inactive: DU-145 > 100 µM | SW-620 22.4 µM | SK-OV-3 99.8 µM | SF-539 > 100 µM | NCI-H23 8.79 µM | CCRF-CEM 3.03 µM | IGROV-1 > 53.2 µM | ACHN 40.6 µM | EKVX 11.1 µM | UACC-62 > 57.5 µM | HCC 2998 41.4 µM | SN12C 27.4 µM | NCI-H460 16 µM | MCF7 23.7 µM | MDA-MB-435 > 100 µM | COLO 205 10 µM | PC-3 5.51 µM

COc1nc2c(c(=O)[nH]1)N=C(c1ccccc1)CC(c1ccccc1)N2 (centres undefined)
inactive: DU-145 82 µM | SW-620 35.7 µM | SK-OV-3 58.5 µM | SF-539 48.1 µM | NCI-H23 74.3 µM | CCRF-CEM 36.4 µM | IGROV-1 61.4 µM | ACHN 30.3 µM | EKVX 48.9 µM | UACC-62 44.7 µM | NCI-H522 35.1 µM | HCC 2998 54.5 µM | SN12C 37 µM | NCI-H460 35.6 µM | MCF7 42.2 µM | MDA-MB-435 59.7 µM | COLO 205 > 100 µM | PC-3 57.9 µM

Cc1ccc(S(=O)(=O)n2cnc(CC(NC(=O)C3CCC(=O)N3C(=O)OCc3ccccc3)C(=O)N3CCCC3C(=O)NN)c2)cc1 (centres undefined)
inactive: SW-620 > 100 µM | NCI-H23 > 100 µM | IGROV-1 > 100 µM | MDA-N > 100 µM | ACHN > 100 µM | EKVX > 100 µM | HCC 2998 > 100 µM | SN12C > 100 µM | NCI-H460 > 100 µM | MCF7 > 100 µM | COLO 205 > 100 µM | PC-3 > 100 µM
